In article PMC6930638, “The Masked Polar Group Incorporation (MPGI) Strategy in Drug Design: Effects of Nitrogen Substitutions on Combretastatin and Isocombretastatin Tubulin Inhibitors” (Molecules, 2019):
Read-outs that look alike come from different tables or passages of the source.

Experiments:
[1] = tested on: HeLa, HT-29 and MCF-7 human tumor cell lines; assay: Antiproliferative activity over the three human tumor cell lines (MTT); assay type: cell-based; conditions: range over the cell lines, Table S1, read-out: Cytotoxicity range (range of antiproliferative IC50 values)
Procedure: (§1) The in vitro antiproliferative activity of the synthesized compounds was evaluated by a colorimetric reaction, using the MTT reagent. They were tested against three different human tumor cell lines: HeLa cervix epithelioid carcinoma, HT-29 colon adenocarcinoma, and MCF-7 breast adenocarcinoma. […] Moving the alkylamino substituent from a para to a meta position with respect to the bridge results in potency reduction, except for the phenstatin analogue 1f. However, the introduction of a nitrogen atom to form 2-dimethylaminopyridine derivatives entails a loss of activity, both for phenstatin analogues (1b, 2b), while for isocombretastatins, it only involves a 2–3 times potency decrease (3b). For combretastatins, it implies an improvement in the cytotoxicity values down to tenths of nanomolar (8b). […] On the other hand, the best 2-dimethylaminopyridine was combretastatin 8b. All ammonium salts derivatives were not cytotoxic at micromolar concentrations.
The antiproliferative activity of the compounds against three human tumor cell lines of different origins (i.e., HeLa cervix epithelioid carcinoma, HT-29 colon adenocarcinoma and MCF-7 breast adenocarcinoma) was evaluated by the MTT method. […] This high success rate is the result of a combination of favorable scaffolds and substituents, and it is similar to those of previous reports on related series. […] We have previously observed the same trend for related compounds acting at the colchicine site of tubulin [10, 23]. For this pyridine series, we observed a different potency trend when we compare the 4-amino-3-pyridine and the 3-amino-4-pyridine derivatives. […] This different behavior is probably a reflection of their different shape, combined with the different geometries imposed by different bridges. We have previously shown that the potency ordering isocombretastatins similar to oximes higher than benzophenones could be explained by the higher conjugation of the ketones with the aromatic rings, which imposes a more planar disposition than those required for high affinity colchicine site binding. For the 3-amino-4-pyridine series, more planar structures are required in order to avoid the bumping of the amino substituents with tubulin out the plane of the aromatic ring, an effect which we have previously shown to impact the potency of 3-substituted indolecombretastatins and dimethylaminophenyl phenstatins. This different geometrical disposition of the amino substituents, and the different adaptability of their corresponding pockets in the two series, can also account for the preference of bulkier substituents at position 3, such as the pyrrolidine rather than the smaller dimethylamino. […] The opposite is observed for the 4-dimethylaminophenyl phenstatins 1a and 1b. […] The remarkable levels of solubility achieved for the quaternary ammonium salts came unfortunately at the expenses of biological activity.
The effect of the different compounds on the proliferation of human cell lines was determined by using the MTT (3-[4,5-dimethylthiazol-2-yl]-2,5-diphenyltetrazolium bromide) reagent (MTT Thiazolyl Blue Tetrazolium Bromide, Sigma-Aldrich, St. Louis, MO, USA) dissolved in PBS 5 mg/mL. Cell viability was evaluated seeding 100 µL of cells in exponential growth phase with appropriate cell line concentration (1.5 × 10^4 HeLa and MCF-7 cells/mL and 3 × 10^4 HT-29 cells/mL) in complete medium in 96-well plates at 37 °C and 5% CO2. After 24 h incubation to allow cells to attach to the plates the ligands were added at different concentrations from 10^−5 to 10^−9 M. The effect on the proliferation was evaluated 72 h post-treatment by adding the MTT reagent (10 µL/well) to a final concentration of 0.5 mg/mL and the plate was further incubated for another 3 h. […]

[2] = tested on: HeLa cervix epithelioid carcinoma; assay: MTT cell antiproliferative assay, HeLa; assay type: cell-based; conditions: Homo sapiens, 72 h
Procedure: as §1
(§2) HeLa (human cervical carcinoma) and MCF-7 (human breast carcinoma) cell lines were cultured in Dulbecco’s Modified Eagles Medium (DMEM) supplemented with 2 mM L-glutamine (Lonza-Cambrex, Karlskoga, Sweden), 10% (v/v) heat inactivated fetal bovine serum (HIFBS) (Lonza-Cambrex) and 100 μg/mL streptomycin-100 IU/mL penicillin (Lonza-Cambrex) at 37 °C in humidified 95% air and 5% CO2. HT-29 (human colon carcinoma) cells were cultured at 37 °C in complete RPMI 1640 medium containing 2 mM L-glutamine, 10% (v/v) HIFBS and 100 μg/mL streptomycin-100 IU/mL penicillin in humidified 95% air and 5% CO2 atmosphere.
(§3) The effect of the different compounds on the proliferation of human cell lines was determined by using the MTT (3-[4,5-dimethylthiazol-2-yl]-2,5-diphenyltetrazolium bromide) reagent (MTT Thiazolyl Blue Tetrazolium Bromide, Sigma-Aldrich, St. Louis, MO, USA) dissolved in PBS 5 mg/mL. Cell viability was evaluated seeding 100 µL of cells in exponential growth phase with appropriate cell line concentration (1.5 × 10^4 HeLa and MCF-7 cells/mL and 3 × 10^4 HT-29 cells/mL) in complete medium in 96-well plates at 37 °C and 5% CO2. After 24 h incubation to allow cells to attach to the plates the ligands were added at different concentrations from 10^−5 to 10^−9 M. The effect on the proliferation was evaluated 72 h post-treatment by adding the MTT reagent (10 µL/well) to a final concentration of 0.5 mg/mL and the plate was further incubated for another 3 h. After this period, the supernatant was removed, the MTT violet crystals formed on the bottom of each well were dissolved in DMSO (100 µL/well) and subsequently, the absorbance of the color complex was read at 570 nm using a multi-well plate reader. Compounds were dissolved in dimethyl sulfoxide (DMSO) and the final solvent concentrations never exceeded 0.5% (v/v). The control wells included treated cells with 0.5% (v/v) DMSO and the positive control. Measurements were performed in triplicate, and each experiment was repeated three times. […] Nonlinear curves fitting the experimental data were carried out for each compound.

[3] = tested on: MCF-7 breast adenocarcinoma; assay: MTT cell antiproliferative assay, MCF-7; assay type: cell-based; conditions: Homo sapiens, MCF7, 72 h
Procedure: as §1, §2, §3

[4] = tested on: Bovine brain microtubule protein (MTP); assay: Tubulin polymerization inhibition assay (turbidimetry); assay type: biochemical; conditions: 1.5 mg/mL MTP; IC50 calculated only if more than 50% inhibition at 20 µM; read-out: TPI IC50
Procedure: Bovine brain microtubule protein (MTP) was isolated as previously described. Briefly, it was purified according to the modified Shelanski method by two cycles of temperature-dependent assembly/disassembly.
Tubulin polymerization was monitored using a Helios α spectrophotometer by measuring the increase in turbidity at 450 nm, caused by a shift from 4 °C to 37 °C, which allows the in vitro MTP self-disassembly and assembly respectively. […] Firstly, ligands at 20 µM concentration, were incubated with 1.5 mg/mL MTP at 20 °C for 30 min and subsequently cooled on ice for 10 min. Then, the experiment starts at 4 °C to establish the initial baseline. The assembly process was initiated by shifting of the temperature to 37 °C and the turbidity produced can be measured by an absorbance increase. After reaching a stable plateau, the temperature was switched back to 4 °C to return to the initial absorption values. The difference in amplitude between the stable plateau and the initial baseline of the curves was taken as the degree of tubulin polymerization for each experiment. […] All the measurements were carried out in at least two independent experiments using MTP from different isolation.

IC50 [2] [µM] | IC50 [3] [µM] | IC50 [4] [µM] | Compound | IC50 [1] [µM] | IC50 ([1]; heading: Cytotoxicity range) [µM] | IC50 ([1]; Homo sapiens) [µM]
 |  |  | COc1cc(C(=NO)c2ccc(N3CCCC3)nc2)cc(OC)c1OC [Compound E-2c, (6-(Pyrrolidin-1-yl)pyridin-3-yl)(3,4,5-trimethoxyphenyl)methanone oxime] | > 1 |  | 
> 1 | > 1 | > 20 | COc1cc(C(=NO)c2ccc(N3CCCC3)nc2)cc(OC)c1OC [Compound 2c, (6-(Pyrrolidin-1-yl)pyridin-3-yl)(3,4,5-trimethoxyphenyl)methanone oxime] |  |  | 
 |  |  | COc1cc(C(=NO)c2cccc(N(C)C)c2)cc(OC)c1OC [Compound Z-2f, (3-(Dimethylamino)phenyl)(3,4,5-trimethoxyphenyl)methanone oxime] | > 1 |  | 
 |  |  | COc1cc(C(=NO)c2ccnc(N(C)C)c2)cc(OC)c1OC [Compound Z-2g, (2-(Dimethylamino)pyridin-4-yl)(3,4,5-trimethoxyphenyl)methanone oxime] | 0.407 to 3.33 |  | 
> 1 | > 1 | > 20 | COc1ccc(OC)c(C(=NO)c2ccc(N(C)C)cc2)c1 [Compound 2e, (2,5-Dimethoxyphenyl)(4-(dimethylamino)phenyl)methanone oxime] |  |  | 
 |  |  | COc1cc(C(=NO)c2ccc(N3CCCC3)nc2)cc(OC)c1OC [Compound Z-2c, (6-(Pyrrolidin-1-yl)pyridin-3-yl)(3,4,5-trimethoxyphenyl)methanone oxime] |  | > 1 | 
> 1 | > 1 | > 20 | COc1cc(C(C)c2cccc(N(C)C)c2)cc(OC)c1OC (stereo not drawn) [Compound 4f, N,N-Dimethyl-3-(1-(3,4,5-trimethoxyphenyl)ethyl)aniline] |  |  | > 1
> 1 | > 1 | > 20 | COc1ccc(C(C)c2ccc(N(C)C)cc2)c(OC)c1OC (stereo not drawn) [Compound 4d, N,N-Dimethyl-4-(1-(2,3,4-trimethoxyphenyl)ethyl)aniline] |  |  | > 1
> 1 | > 1 |  | COc1cc(C=Cc2ccc([N+]3(C)CCCC3)cc2)cc(OC)c1OC [Compound 9i, 1-Methyl-1-(4-(3,4,5-trimethoxystyryl)phenyl)pyrrolidin-1-ium iodide] |  |  | 
> 1 | > 1 | > 20 | COc1ccc(OC)c(C(=O)c2ccc(N(C)C)cc2)c1 [Compound 1e, (2,5-dimethoxyphenyl)(4-(dimethylamino)phenyl)methanone] |  |  | > 1
> 1 | > 1 | > 20 | COc1cc(C=Cc2ccc(N3CCCC3)nc2)cc(OC)c1OC [Compound 8c, 2-(Pyrrolidin-1-yl)-5-(3,4,5-trimethoxystyryl)pyridine] |  |  | > 1
 |  |  | COc1cc(C(=NO)c2cccc(N(C)C)c2)cc(OC)c1OC [Compound E-2f, (3-(Dimethylamino)phenyl)(3,4,5-trimethoxyphenyl)methanone oxime] |  |  | > 1
 |  |  | COc1cc(C(=NO)c2ccc([N+](C)(C)C)cc2)cc(OC)c1OC [Compound Z-6a, 4-((Hydroxyimino)(3,4,5-trimethoxyphenyl)methyl)-N,N,N-trimethylbenzenaminium iodide] | > 1 |  | 
> 1 | > 1 | > 20 | COc1ccc(OC)c(C(C)c2ccc(N(C)C)cc2)c1 (stereo not drawn) [Compound 4e, 4-(1-(2,5-Dimethoxyphenyl)ethyl)-N,N-dimethylaniline] |  |  | > 1
 |  |  | COc1ccc(OC)c(C(=NO)c2ccc(N(C)C)cc2)c1 [Compound E-2e, (2,5-Dimethoxyphenyl)(4-(dimethylamino)phenyl)methanone oxime] |  |  | > 1
> 1 | > 1 | > 20 | C=C(c1ccc(N(C)C)cc1)c1cc(OC)ccc1OC [Compound 3e, 4-(1-(2,5-Dimethoxyphenyl)vinyl)-N,N-dimethylaniline] |  |  | > 1
> 1 | > 1 | > 20 | COc1cc(C=Cc2ccc([N+](C)(C)C)cc2)cc(OC)c1OC [Compound 9a, N,N,N-trimethyl-4-(3,4,5-trimethoxystyryl)benzenaminium iodide] |  |  | > 1
 |  |  | COc1cc(C(=NO)c2ccc([N+](C)(C)C)cc2)cc(OC)c1OC [Compound E-6a, 4-((Hydroxyimino)(3,4,5-trimethoxyphenyl)methyl)-N,N,N-trimethylbenzenaminium iodide] |  |  | > 1
 |  |  | COc1cc(C(=NO)c2ccnc(N(C)C)c2)cc(OC)c1OC [Compound E-2g, (2-(Dimethylamino)pyridin-4-yl)(3,4,5-trimethoxyphenyl)methanone oxime] |  |  | 0.407 to 3.33
> 1 | > 1 | > 20 | COc1cc(C(=O)c2ccc([N+](C)(C)C)cc2)cc(OC)c1OC [Compound 5a, N,N,N-Trimethyl-4-(3,4,5-trimethoxybenzoyl)benzenaminiumiodide] |  |  | > 1
 |  |  | COc1ccc(C(=NO)c2ccc(N(C)C)cc2)c(OC)c1OC [Compound E-2d, (4-(Dimethylamino)phenyl)(2,3,4-trimethoxyphenyl)methanone oxime] |  |  | 0.277 to 0.677
 |  |  | COc1ccc(OC)c(C(=NO)c2ccc(N(C)C)cc2)c1 [Compound Z-2e, (2,5-Dimethoxyphenyl)(4-(dimethylamino)phenyl)methanone oxime] | > 1 |  | 
